# Where “and” joins values, the source holds several entries; their conditions need not be identical. Equal values may be shown once.
# Legend:
# NL-PRMT5 = molecular target: T1, NL-PRMT5 (Homo sapiens, UniProt O14744); test: CBH-002 affinity curve, HEK293, NL-PRMT5 fusion with empty carrier DNA (no WDR77); format: cell-based; set-up: unit not given here; settings: Figure S2A NL-PRMT5, log([CBH-002])
# T1 construct: host or cells: HEK293
# Method: (§1) HEK293 cells (ATCC) were cultured in DMEM (Thermo Fisher) + 10% (v/v) FBS (Seredigm), and HCT116 cells (Horizon Discovery, #PAR-034 and #R02-033) were cultured in McCoy’s 5A (Thermo Fisher) + 10% FBS, with incubation in a humidified, 37 °C/5% CO2 incubator. Cells were split 1–3 days prior to performing experiments and used at roughly 80% confluency. […] Cells were transfected according to the manufacturer’s protocol using FuGENE HD (Promega). NanoLuc fusion DNA was diluted into Transfection Carrier DNA (Promega) in Opti-MEM at a ratio of 1:9 (mass/mass), and FuGENE HD was added at a ratio of 1:3 (μg DNA:μL lipid). For experiments using WDR77, untagged WDR77 DNA (Promega) was used in place of Carrier DNA. Formed complexes were combined with cells resuspended to a density of 2 × 10^5 cells/mL in Opti-MEM + 1% FBS at a ratio of 1:20 (vol:vol). Cells were plated into a flask and incubated at 37 °C in a humidified 5% CO2 atmosphere for 18–24 h, before being lifted and seeded into 96-well non-binding surface-treated plates (Corning). Cells were seeded at a density of 2 × 10^5 cells/mL in Opti-MEM + 1% FBS in 100 μL (96-well). The BRET probe CBH-002 was prepared first as a 100× stock in 100% DMSO (Sigma) and then diluted to a 20× stock in NanoBRET Tracer Dilution buffer (Promega). Test compounds were prepared as 1000× stocks in 100% DMSO and diluted to 10× stocks in Opti-MEM to prepare working stocks. […] NanoBRET Complete 3x Substrate was prepared by combining Nano-Glo Substrate and Extracellular NanoLuc Inhibitor in Opti-MEM, according to the manufacturer’s protocol (Promega). NanoBRET Complete 3× Substrate was added to cells and plates were measured on either a PheraSTAR FSX equipped with 450 nm (donor) and 610 nm (acceptor) filters, or a GloMAX Discover equipped with 450/8 nm BP (donor) and 600 nm LP (acceptor) filters, using a 0.3 s integration time.
# (§2) EC50 values were obtained by fitting the BRET probe and compound affinity curves to a sigmoidal four-parameter fit model in Graphpad Prism:1 Y=Ymin+Ymax−Ymin/1+10^LogEC50−Xh where h is the Hill Slope.
# [1] = molecular target: NanoLuc-PRMT5 co-expressed with WDR77 (Homo sapiens, UniProt O14744); test: Live-cell NanoBRET target engagement with BRET probe CBH-002 in HEK293 cells expressing NanoLuc-PRMT5 and unlabeled WDR77; format: cell-based; set-up: host or cells: HEK293; key to BRET, CBH-002 + DMSO / BRET, CBH-002 + GSK3326595: mBRET units = acceptor/donor BRET ratio × 1000; settings: for BRET, CBH-002 + DMSO / BRET, CBH-002 + GSK3326595: log([CBH-002]); for BRET, CBH-002 + GSK3326595: 10 µM GSK3326595
# Method: as §1, with “For experiments using WDR77, untagged WDR77 DNA (Promega) was used in place of Carrier DNA.” left out, “Cells were plated into a flask and incubated at 37 °C in a humidified 5% CO2 atmosphere for 18–24 h, before being lifted and seeded into 96-well non-binding surface-treated plates (Corning).” left out, “(Promega).” for “(Promega). NanoBRET Complete 3× Substrate was added to cells and plates were measured on either a PheraSTAR FSX equipped with 450 nm (donor) and 610 nm (acceptor) filters, or a GloMAX Discover equipped with 450/8 nm BP (donor) and 600 nm LP (acceptor) filters, using a 0.3 s integration time.”
# BRET ratio values were calculated by dividing the acceptor by the donor signal, and raw BRET was converted to milli-BRET (mBRET) units (mBu) by multiplying by 1000.
# as §2
# When normalized BRET was used, mBRET values were normalized using2 NormalizedBRET%=(Y−BRETmin)/BRETmax−BRETmin where y = mBRET in the presence of test compound and BRET probe, BRETmin = mBRET at the highest concentration (saturating) of test compound and BRET probe, and BRETmax = mBRET in the presence of vehicle (DMSO) and BRET probe.
# Normalized concentration-response curves showing full competition were fit using a 2-parameter model:3 Y=100/1+10^LogEC50−Xh
# In situations where only partial competition was observed, the normalized concentration-response curves were fit using Eq. 1 and where Ymin was constrained to >0.
# T1 sequence (O14744 whole entry, the tested form may be a part): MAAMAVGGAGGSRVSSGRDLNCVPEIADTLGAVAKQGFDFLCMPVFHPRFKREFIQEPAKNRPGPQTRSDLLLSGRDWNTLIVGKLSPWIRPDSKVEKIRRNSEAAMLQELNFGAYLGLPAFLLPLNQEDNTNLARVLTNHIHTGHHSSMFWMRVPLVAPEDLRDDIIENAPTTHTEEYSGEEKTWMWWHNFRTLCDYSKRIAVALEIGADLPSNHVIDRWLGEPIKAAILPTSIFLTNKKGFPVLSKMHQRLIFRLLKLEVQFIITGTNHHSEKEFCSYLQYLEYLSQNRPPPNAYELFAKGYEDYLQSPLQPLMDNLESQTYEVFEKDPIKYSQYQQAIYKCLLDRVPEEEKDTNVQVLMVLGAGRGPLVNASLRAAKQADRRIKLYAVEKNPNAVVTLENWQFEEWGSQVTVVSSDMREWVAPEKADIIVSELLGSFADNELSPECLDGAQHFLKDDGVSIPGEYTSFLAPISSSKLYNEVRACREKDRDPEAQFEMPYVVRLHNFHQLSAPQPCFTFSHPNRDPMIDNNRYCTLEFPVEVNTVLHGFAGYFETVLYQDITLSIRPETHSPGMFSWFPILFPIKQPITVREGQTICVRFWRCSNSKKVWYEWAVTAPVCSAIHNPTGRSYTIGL
# NanoLuc-PRMT5 co-expressed with WDR77, sequence (O14744 whole entry): as the sequence (O14744 whole entry, the tested form may be a part) above
# NanoLuc-PRMT5 co-expressed with WDR77, sequence (Q9BQA1 whole entry partner): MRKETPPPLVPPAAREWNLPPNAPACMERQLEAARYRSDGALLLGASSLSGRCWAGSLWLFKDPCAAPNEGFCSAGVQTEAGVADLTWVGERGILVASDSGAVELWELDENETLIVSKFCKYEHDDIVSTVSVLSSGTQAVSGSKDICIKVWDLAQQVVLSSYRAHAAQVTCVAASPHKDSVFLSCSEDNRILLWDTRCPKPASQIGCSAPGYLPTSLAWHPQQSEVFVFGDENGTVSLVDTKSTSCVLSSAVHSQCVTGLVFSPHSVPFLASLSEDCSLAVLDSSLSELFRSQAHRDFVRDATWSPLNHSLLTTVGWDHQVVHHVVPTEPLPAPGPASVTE
compound,measurement,setting,value
O=C(CCc1ccc2n1[B-](F)(F)[N+]1=C(c3ccc[nH]3)C=CC1=C2)NCCCCC(=O)N1CCC(Nc2cc(C(=O)NC[C@H](O)CN3CCc4ccccc4C3)ncn2)CC1 [CBH-002],"BRET, CBH-002 + DMSO",NL-PRMT5; uM 0.04576,20.5721 and 25.8738 and 18.388
same,"BRET, CBH-002 + GSK3326595",NL-PRMT5; uM 0.04576,1.809 and 2.429 and 2.181
same,"BRET, CBH-002 + DMSO",NL-PRMT5; uM 0.52288,24.1037 and 25.1393 and 24.5832
same,"BRET, CBH-002 + GSK3326595",NL-PRMT5; uM 0.52288,4.538 and 4.814 and 4.399
same,"BRET, CBH-002 + DMSO",NL-PRMT5; uM 1,34.4603 and 46.2115 and 36.0512
same,"BRET, CBH-002 + GSK3326595",NL-PRMT5; uM 1,12.5442 and 11.3355 and 11.5115
same,"BRET, CBH-002 + DMSO",NL-PRMT5; uM -0.43136,17.1332 and 19.3006 and 16.5836
same,"BRET, CBH-002 + GSK3326595",NL-PRMT5; uM -0.43136,1.767 and 1.79 and 1.327
same,"BRET, CBH-002 + DMSO",NL-PRMT5; uM -0.90849,13.1405 and 15.4187 and 12.8329
same,"BRET, CBH-002 + GSK3326595",NL-PRMT5; uM -0.90849,0.7756 and 0.9895 and 1.006
same,"BRET, CBH-002 + DMSO",NL-PRMT5; uM -1.20952,13.3172 and 13.6477 and 14.1021
same,"BRET, CBH-002 + GSK3326595",NL-PRMT5; uM -1.20952,0.6778 and 0.9377 and 0.9652
same,"BRET, CBH-002 + DMSO",NL-PRMT5; uM -1.68664,10.4832 and 12.4293 and 10.2869
same,"BRET, CBH-002 + GSK3326595",NL-PRMT5; uM -1.68664,1.144 and 1.071 and 1
same,"BRET, CBH-002 + DMSO",NL-PRMT5; uM -1.98767,7.5477 and 8.773 and 6.804
same,"BRET, CBH-002 + GSK3326595",NL-PRMT5; uM -1.98767,0.4652 and 0.5599 and 0.5695
same,"BRET, CBH-002 + DMSO",NL-PRMT5; uM -2.46479,4.066 and 4.851 and 4.778
same,"BRET, CBH-002 + DMSO",NL-PRMT5; uM -2.94191,2.639 and 2.5785 and 2.4252
same,"BRET, CBH-002 + DMSO",[1]; uM 0.00,772.09 and 714.74 and 694.22
same,"BRET, CBH-002 + GSK3326595",[1]; uM 0.00,61.04 and 53.68 and 50.91
same,"BRET, CBH-002 + DMSO",[1]; uM -0.30,762.09 and 706.06 and 687.42
same,"BRET, CBH-002 + GSK3326595",[1]; uM -0.30,39.10 and 34.12 and 31.58
same,"BRET, CBH-002 + DMSO",[1]; uM -0.60,725.23 and 680.05 and 663.94
same,"BRET, CBH-002 + GSK3326595",[1]; uM -0.60,21.81 and 20.23 and 18.49
same,"BRET, CBH-002 + DMSO",[1]; uM -0.90,664.14 and 629.71 and 617.88
same,"BRET, CBH-002 + GSK3326595",[1]; uM -0.90,15.32 and 14.57 and 13.57
same,"BRET, CBH-002 + DMSO",[1]; uM -1.20,530.53 and 496.08 and 504.63
same,"BRET, CBH-002 + GSK3326595",[1]; uM -1.20,11.35 and 11.22 and 10.54
same,"BRET, CBH-002 + DMSO",[1]; uM -1.51,359.70 and 340.31 and 361.19
same,"BRET, CBH-002 + GSK3326595",[1]; uM -1.51,9.43 and 9.45 and 8.97
same,"BRET, CBH-002 + DMSO",[1]; uM -1.81,238.28 and 223.48 and 233.43
same,"BRET, CBH-002 + GSK3326595",[1]; uM -1.81,8.65 and 8.75 and 8.42
same,"BRET, CBH-002 + DMSO",[1]; uM -2.11,126.25 and 118.03 and 125.67
same,"BRET, CBH-002 + GSK3326595",[1]; uM -2.11,8.17 and 8.22 and 7.93
same,"BRET, CBH-002 + DMSO",[1]; uM -2.41,70.04 and 65.87 and 70.86
same,"BRET, CBH-002 + GSK3326595",[1]; uM -2.41,7.94 and 8.15 and 7.70
same,"BRET, CBH-002 + DMSO",[1]; uM -2.71,39.89 and 37.62 and 39.62
same,"BRET, CBH-002 + GSK3326595",[1]; uM -2.71,7.74 and 7.94 and 7.67
same,"BRET, CBH-002 + DMSO",[1]; uM -3.01,23.90 and 22.68 and 24.07
same,"BRET, CBH-002 + GSK3326595",[1]; uM -3.01,7.80 and 7.76 and 7.50
same,EC50,"[1]; probe titration against 10 µM GSK3326595 or DMSO, live HEK293, WDR77 co-expression, read-out: CBH-002 apparent affinity (EC50)",33 nM

# Source: publication PMC12675575, “A BRET biosensor for measuring uncompetitive engagement of PRMT5 complexes in cells” (Nature Communications, 2025)
